Source: publication PMC6563099, “Novel Thienopyrimidine Derivative, RP-010, Induces β-Catenin Fragmentation and Is Efficacious against Prostate Cancer Cells” (Cancers, 2019)

Assays:
Assay type in all cases: cell-based
[1] = tested on: PC-3; test: MTT cytotoxicity assay, PC-3 prostate cancer cells; conditions: Homo sapiens, PC-3, MTT assay; means ± SDs of three independent experiments; read-out: IC50 ± SD, Prostate Cancer Cells, PC-3
Procedure: (§1) All the cells were cultured as adherent monolayers in culture flasks, and were used to determine the anti-cancer efficacy of RP-010. DMEM supplemented with 4.5 g of glucose, 10% fetal bovine serum (FBS) and 1% penicillin/streptomycin, was used to augment cell growth. Finally, the cells were incubated and grown in a humidified incubator containing 5% CO2 at 37 °C [50]. […] Cells were obtained from frozen stocks and cell passaging (up to P4) was performed at 80% cell confluency, using PBS and trypsin + 2.2-mM EDTA.
(§2) MTT assays were used to determine the cytotoxicity of the RP compounds, to PC cell lines, as previously described.

[2] = tested on: DU145; test: MTT cytotoxicity assay, DU145 prostate cancer cells; conditions: Homo sapiens, DU-145, MTT assay; means ± SDs of three independent experiments; read-out: IC50 ± SD, Prostate Cancer Cells, DU145
Procedure: as §1, §2

[3] = tested on: CRL-1459; test: MTT cytotoxicity assay, CRL-1459 normal colon epithelial cells; conditions: Homo sapiens, normal colon epithelial cell line, means ± SDs of three independent experiments, read-out: IC50 ± SD, Non-Prostate Cells, CRL-1459
Procedure: as §1, §2

[4] = tested on: CHO; test: MTT cytotoxicity assay, CHO cells; conditions: Cricetulus griseus, Chinese hamster ovarian cell line, means ± SDs of three independent experiments, read-out: IC50 ± SD, Non-Prostate Cells, CHO
Procedure: as §1, §2

Compound | IC50 [1] [µM] | IC50 [2] [µM] | IC50 [3] [µM] | IC50 [4] [µM]
O=c1[nH]c(-c2ccc(Cl)cc2)nc2sc3c(c12)CCCC3 [RP3] | > 100 | > 100 | > 100 | > 100
O=c1[nH]c(-c2ccc(F)cc2)nc2sc3c(c12)CCCC3 [RP2] | > 100 | > 100 | > 100 | > 100
COc1ccc(-c2nc3sc4c(c3c(=O)[nH]2)CCCC4)cc1OC [RP11] | 6.6 ± 0.7 | 2.7 ± 0.5 | > 100 | > 100
Cc1ccc(-c2nc3sc4c(c3c(=O)[nH]2)CCCC4)cc1 [RP7] | > 100 | > 100 | > 100 | > 100
O=c1[nH]c(-c2ccc([N+](=O)[O-])cc2)nc2sc3c(c12)CCCC3 [RP6] | > 100 | > 100 | > 100 | > 100
O=c1[nH]c(-c2ccc(Cl)cc2Cl)nc2sc3c(c12)CCCC3 [RP4] | 73.4 ± 3.1 | > 100 | > 100 | > 100
N#Cc1ccc(-c2nc3sc4c(c3c(=O)[nH]2)CCCC4)cc1 [RP8] | 6.4 ± 0.5 | > 100 | > 100 | > 100
O=c1[nH]c(-c2ccccc2)nc2sc3c(c12)CCCC3 [RP1] | > 100 | > 100 | > 100 | > 100
COc1cccc(-c2nc3sc4c(c3c(=O)[nH]2)CCCC4)c1 [RP9] | 2.8 ± 1.1 | > 100 | > 100 | > 100
COc1cccc(-c2nc3sc4c(c3c(=O)[nH]2)CCCC4)c1O [RP13] | > 100 | > 100 | > 100 | > 100
O=c1[nH]c(-c2cccc([N+](=O)[O-])c2)nc2sc3c(c12)CCCC3 [RP5] | > 100 | > 100 | > 100 | > 100
COc1cc(OC)cc(-c2nc3sc4c(c3c(=O)[nH]2)CCCC4)c1 [RP12] | 6.9 ± 1 | > 100 | > 100 | > 100
